{"source": "paper PMC4992173", "about": "“Divergent synthesis and identification of the cellular targets of deoxyelephantopins” (Nature Communications, 2016)", "target": "T1, PPARγ C176A (Homo sapiens, UniProt P37231, C176A)", "T1 construct": "host or cells: 293T", "T1 sequence (P37231 whole entry C176A)": "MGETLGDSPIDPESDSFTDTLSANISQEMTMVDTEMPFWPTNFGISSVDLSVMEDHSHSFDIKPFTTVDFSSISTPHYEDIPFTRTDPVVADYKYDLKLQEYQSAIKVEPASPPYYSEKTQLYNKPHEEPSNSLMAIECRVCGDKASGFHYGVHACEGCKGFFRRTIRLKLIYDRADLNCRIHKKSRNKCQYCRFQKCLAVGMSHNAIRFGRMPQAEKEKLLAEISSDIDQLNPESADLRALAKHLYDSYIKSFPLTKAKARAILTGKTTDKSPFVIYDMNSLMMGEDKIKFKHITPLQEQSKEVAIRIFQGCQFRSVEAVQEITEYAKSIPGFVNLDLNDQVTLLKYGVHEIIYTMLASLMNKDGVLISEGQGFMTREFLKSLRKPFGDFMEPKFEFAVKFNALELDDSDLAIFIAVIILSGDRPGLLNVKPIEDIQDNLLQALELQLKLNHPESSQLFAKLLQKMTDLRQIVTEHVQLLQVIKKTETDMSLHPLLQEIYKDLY", "assay": "Gel-based competitive IC50 determination in 293T lysates: C176A PPARγ", "format": "binding", "conditions": "C176A PPARγ expressed in 293T cells, lysate, 1 h, then 10 μM 24c-Cy3", "excerpt": "Finally, we sought to understand the molecular basis for PPARγ binding by the synthetic analogues of deoxyelephantopin through identification of the precise covalently modified amino acid site. There is literature precedent for oxidized fatty acids containing an α,β-unsaturated ketone to form a covalent bond with a cysteine in the ligand-binding site of PPARγ[53]. More recently, synthetic ligands binding reversibly to a distinct site were identified. […] Bearing in mind that the structurally simplified, and thus less prone to MS/MS fragmentation, probe 23c binds PPARγ as efficiently as 24c (Supplementary Fig. 13), we treated the recombinant nuclear receptor with the former compound, digested the protein and analysed the resulting peptides by LC–MS/MS. […]\nSupplementary figure 21: Top: Fluorescence gels corresponding to the IC50 curves presented in the main text Figure 8b. γ fluorescence signal in percentage after 19a treatment. […]\nBiological materials. […] Protein concentration was determined using the Bradford assay (Bio-Rad).\nCell culture and preparation of lysates. […] Cells were lysed by sonication to form cell lysates and protein concentration was determined using the Bradford […]", "data": [{"smiles": "C=C(C)C(=O)O[C@H]1CC2=C[C@H](C/C=C\\[C@H]3OC(=O)C(=C)[C@H]13)OC2=O", "note": "[19a]", "values": [{"measurement": "IC50", "result": 33, "unit": "µM"}]}]}
